Results as given in patent US20150136603A1, “WATER-SOLUBLE, UV-ABSORBING AND/OR FLOURESCENT COMPONENTS WITH VERY HIGH ISOELECTRIC POINTS” (TEXAS A & M UNIVERSITY SYSTEM, priority 2004, published 2015).

Test: pKa values for the secondary alcohol OH group

Compound	pKa	pKa value for the secondary alcohol OH group
OC[C@H]1O[C@H](O[C@H]2[C@H](O)[C@@H](O)C(O)O[C@@H]2CO)[C@H](O)[C@@H](O)[C@@H]1O (mixture of isomers) [maltose]	11.9	–
OC[C@@H](O)[C@@H](O)[C@H](O)[C@@H](O)CO [sorbitol]	13.6	–
OC[C@H]1O[C@@H]2O[C@H]3[C@H](O)[C@@H](O)[C@@H](O[C@H]4[C@H](O)[C@@H](O)[C@@H](O[C@H]5[C@H](O)[C@@H](O)[C@@H](O[C@H]6[C@H](O)[C@@H](O)[C@@H](O[C@H]7[C@H](O)[C@@H](O)[C@@H](O[C@H]1[C@H](O)[C@H]2O)O[C@@H]7CO)O[C@@H]6CO)O[C@@H]5CO)O[C@@H]4CO)O[C@@H]3CO [α-CD]	–	12.05
